Measurements published in patent publication US20230220354A1, “COMPOSITIONS AND METHODS FOR CONTROLLING CELLULAR IDENTITY” (King Abdullah University of Science and Technology, priority 2020, published 2023).
Entries after “also recorded” stand apart in the source; their conditions may differ.

Legend:
astrocytes = assay: Lethality of individual metabolites for astrocytes in serum-free base medium; assay type: cell-based, mouse; conditions: millimolar (high) concentrations
Protocol: The cocktail customization was performed in primary cultures of mature astrocytes, between the second and the fourth passage. Those cells were maintained at least 8 days in culture before passaging. We corroborated the expression of Gfap before starting the experiment by immunocytochemistry (FIG. 1G). We tested individual metabolites at different concentrations in a serum-free medium (base media, BM). BM contained equivalent volumes of DMEM-F12 and Neurobasal, plus the supplements N2 and B27 at 1X. Notes about specific molecules added. S-adenosylmethionine (SAM) at millimolar concentrations was lethal for astrocytes, which is in line with the lower physiological concentrations usually found for this metabolite compared to others. Cysteine is high-sensitive to oxidation, which is manifested as white flake precipitation, a high-concentrated stock solution [2500mM] dissolved in ddH2O with pH slightly acid (5.5-6) was prepared to prevent this issue. We corroborated a pH always close to 7.4 in the cells maintained in vitro, before and after treating them with cocktails containing the diluted solution of cysteine.

[1] = tested on: primary cultures of mature astrocytes; assay: Customization of C1-MIM concentrations: relative gene expression (Gfap, Cd44) by rtPCR in mature astrocytes; assay type: cell-based, mouse
Protocol: Astrocytes were derived from cortical tissues postnatal or differentiated from dissociated neurospheres after a second or third passage, as described herein. For postnatal astrocytes, cortices were isolated from P4 mice pups to get single cells and were plated as described by Schildge et al.^51Confluent cultures were sorted with Anti-GLAST (ACSA-1) Microbead kit according to manufacturer instructions. For inducing differentiation from NSCs, single cells derived from neurospheres were exposed to astrocyte media. In both cases, cells were plated over pre-treated Poly-L-Lysine plates or Poly-D-Lysine glass-coverslips using Astrocyte Differentiation Medium (DMEM-F12, 10% heat-inactivated FBS, lx B27, and 1X Glutamax).
Cell cultures seeded on adherent conditions were kept on their respective differentiation media until they reach a mature phenotype (defined by the expression of markers specific to each cell type). When cultures reached around 80-90% confluence, the differentiation media was removed, cells were washed twice with PBS and the media was replaced with CI-MIM. The composition of C1-MIM includes up to 6 metabolites (details of the combinations used are specified in figure legends) including Methionine, Threonine, Glycine, Putrescine, Cysteine [5mM], and S-adenosylmethionine [0.05mM], which are dissolved in a base medium (BM) composed by DMEM-F12 plus Neurobasal [1:1], supplemented with 1X B27, 1X N2. […] In all cases, from the same batch of each cell culture, a control culture was also washed with PBS but maintained with their own differentiation media along all the time of the treatment. Cells in this schema were fed every other day. Cells were monitored daily to attest to the change in morphology. Cells were collected on the fifth day or earlier after starting the MIM treatment (indicated in each specific case in the figure legend) for further analyses, as indicated in the figure legends of each experimental approach. Viability of cultures at the time of collection was measured by trypan blue, and all cases above 85% viable cells were processed for downstream analyses.
Total RNA was isolated from cells grown on Petri dish at the indicated time points, using the RNeasy Plus Mini kit QIAGEN, according to the manufacturer's protocol, including a DNA-removal step with DNAseI. Amount and purity of RNA were assessed using a NanoDrop spectrophotometer (Nanodrop Technologies); at least 500 ng of total RNA was used to synthesize cDNA by reverse transcription, using Maxima™ H
Minus cDNA Synthesis Master Mix. 2.5-10 ng of cDNA was used in the following qPCR performed on a CFX384 thermal cycler (Bio-Rad) using the SsoAdvanced™ Universal SYBR® Green Supermix. Results were normalized to at 193 least one reference genes β-Actin, RPL38, GAPDH, Gus, CTCF, and Natl, specified per figure), selected for their highest stability among a pool of common housekeeping genes. Primers were designed by NCBI/Primer-BLAST primers designing tool (Table 1). Statistical analysis of the results was performed using the 2ACt method^s. Results were expressed relative to the expression values of the experimental control.
The cocktail customization was performed in primary cultures of mature astrocytes, between the second and the fourth passage. Those cells were maintained at least 8 days in culture before passaging. […] We tested individual metabolites at different concentrations in a serum-free medium (base media, BM). […]

In the case of `C[S+](CC[C@H](N)C(=O)[O-])C[C@H]1O[C@@H](n2cnc3c(N)ncnc32)[C@H](O)[C@@H]1O` (stereo partly shown) [S-adenosylmethionine], the “lethality / toxicity for astrocytes” value (astrocytes) was “lethal; also recorded: toxic” and the “lethality / toxicity for astrocytes” value (astrocytes; listed as SAM) was “lethal”.

With `N[C@@H](CS)C(=O)O` [cysteine] the Gfap expression ([1]; individual metabolite, range of concentrations (0.025 to 10mM)) was “potentiates”.

In the case of `NCCCCN` [putrescine], the Gfap expression ([1]; separate metabolite at 1mM) was “repressed”.

With `C[C@@H](O)[C@H](N)C(=O)O` [threonine] the Gfap expression ([1]; separate metabolite at 1mM) was “repressed”.

In the case of “FGF2: growth factor added to improve cell survival in serum-free medium [reference compound]”, the Gfap expression ([1]; 20ng/mL) was “did not inhibit” and the Gfap expression ([1]; concentrations lower than 20ng/mL) was “potentiate”.
